Assay results taken from BindingDB's records for doi:10.1021/jm0504961 (Merck Frosst Centre For Therapeutic Research, 2005).

Experiments:
Cathepsin K = biological target: T1, Cathepsin K (Oryctolagus cuniculus, UniProt P43236); assay: Enzyme Inhibition Assay and Bone Resorption Assay; conditions: pH 5.5; 22 °C
T1 sequence (P43236 whole entry): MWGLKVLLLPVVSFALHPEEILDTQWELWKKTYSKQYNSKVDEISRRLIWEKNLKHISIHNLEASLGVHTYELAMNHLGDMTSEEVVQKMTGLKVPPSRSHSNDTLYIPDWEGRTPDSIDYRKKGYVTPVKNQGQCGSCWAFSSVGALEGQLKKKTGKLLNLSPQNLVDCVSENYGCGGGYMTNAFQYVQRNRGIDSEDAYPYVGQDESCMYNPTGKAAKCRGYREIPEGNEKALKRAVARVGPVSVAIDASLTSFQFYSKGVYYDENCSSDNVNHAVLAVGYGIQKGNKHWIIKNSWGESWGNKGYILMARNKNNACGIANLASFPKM
Protocol: (§1) Prior to the addition of substrate, different concentrations of the inhibitor ranging from 100 uM to 0.2 nM were preincubated for 15 min with enzyme to allow the establishment of the enzyme-inhibitor complex. […] The percent inhibition of the reaction was calculated from a control reaction containing only vehicle. IC50 curves were generated by fitting percent inhibition values to a four parameter logistic model (SOFTMAX PRO, Molecular Devices). EC50/IC50 values were obtained from functional rabbit bone resorption assay.

Cathepsin S [1] = biological target: Cathepsin S (Mouse, UniProt O70370); assay: Enzyme Inhibition Assay
Cathepsin S (Mouse, UniProt O70370), sequence (O70370 whole entry): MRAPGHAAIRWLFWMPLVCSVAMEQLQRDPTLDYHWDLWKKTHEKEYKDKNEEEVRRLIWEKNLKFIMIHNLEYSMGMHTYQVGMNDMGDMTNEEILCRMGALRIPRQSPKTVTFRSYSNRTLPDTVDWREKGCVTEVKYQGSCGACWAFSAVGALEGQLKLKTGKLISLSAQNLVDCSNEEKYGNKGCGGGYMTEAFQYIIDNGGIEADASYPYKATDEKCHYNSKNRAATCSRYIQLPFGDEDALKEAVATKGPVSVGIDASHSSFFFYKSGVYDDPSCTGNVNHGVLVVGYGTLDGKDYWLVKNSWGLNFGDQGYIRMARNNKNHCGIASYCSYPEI
Protocol: as §1, with “Devices).” for “Devices). EC50/IC50 values were obtained from functional rabbit bone resorption assay.”

Procathepsin L = Procathepsin L (Homo sapiens, UniProt P07711); assay: Enzyme Inhibition Assay and Whole Cell Enzyme Occupancy Assay; conditions: pH 5.5; 22 °C
Procathepsin L, sequence (P07711 whole entry): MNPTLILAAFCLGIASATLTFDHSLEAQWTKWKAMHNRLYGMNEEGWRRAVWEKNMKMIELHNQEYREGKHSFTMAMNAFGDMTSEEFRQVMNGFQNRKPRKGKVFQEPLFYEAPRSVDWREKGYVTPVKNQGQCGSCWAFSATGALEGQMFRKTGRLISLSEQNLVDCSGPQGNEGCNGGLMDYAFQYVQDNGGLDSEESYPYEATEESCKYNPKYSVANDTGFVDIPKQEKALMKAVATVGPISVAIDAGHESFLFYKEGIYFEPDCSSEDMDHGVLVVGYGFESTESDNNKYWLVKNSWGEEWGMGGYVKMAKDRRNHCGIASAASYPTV
Protocol: (§2) Prior to the addition of substrate, different concentrations of the inhibitor ranging from 100 uM to 0.2 nM were preincubated for 15 min with enzyme to allow the establishment of the enzyme-inhibitor complex. The proteolytic cleavage of N-acyl aminocoumarins by cathepsins was conducted in 96-well plate format and the plate read using a Spectramax (Molecular Devices) plate reader. The excitation wavelength was 355 nm and the emission wavelength was 460 nm for peptidyl-AMC substrates. The percent inhibition of the reaction was calculated from a control reaction containing only vehicle. IC50 curves were generated by fitting percent inhibition values to a four parameter logistic model (SOFTMAX PRO, Molecular Devices). EC50/IC50 values were obtained from whole cell enzyme occupancy assays for human cathepsins B (in HepG2 cells), L (in HepG2 cells), and S (in Ramos cells).

Cathepsin S [2] = biological target: Cathepsin S (Homo sapiens, UniProt P25774); assay: as above; conditions: pH 6.5; 22 °C
Cathepsin S (Homo sapiens, UniProt P25774), sequence (P25774 whole entry): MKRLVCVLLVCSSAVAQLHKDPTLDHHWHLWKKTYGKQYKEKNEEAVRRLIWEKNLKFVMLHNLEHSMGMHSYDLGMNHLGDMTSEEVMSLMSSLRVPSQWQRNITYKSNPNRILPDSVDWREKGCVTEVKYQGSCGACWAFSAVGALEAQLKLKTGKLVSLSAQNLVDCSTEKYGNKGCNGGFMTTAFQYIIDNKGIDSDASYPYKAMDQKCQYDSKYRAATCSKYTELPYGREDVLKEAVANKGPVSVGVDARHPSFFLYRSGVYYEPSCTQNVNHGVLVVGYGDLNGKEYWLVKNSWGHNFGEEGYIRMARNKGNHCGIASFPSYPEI
Protocol: as §2

SMILES | EC50 (Cathepsin K) [µM] | EC50 (Cathepsin S [1]) [µM] | EC50 (Procathepsin L) [µM] | EC50 (Cathepsin S [2]) [µM]
CN1CCN(c2nc(-c3ccc(C(=O)NC4(C(=O)NCC#N)CCCCC4)cc3)cs2)CC1 [N-{1-[(cyanomethyl)carbamoyl]cyclohexyl}-4-[2-(4-methylpiperazin-1-yl)-1,3-thiazol-4-yl]benzamide] | 0.005 | 0.318 | 0.34 | 0.79
CC(C)C[C@@H](C(=O)NCC#N)c1cccc(-c2ccc(N3CCNCC3)cc2)c1 [(2R)-N-(cyanomethyl)-4-methyl-2-{3-[4-(piperazin-1-yl)phenyl]phenyl}pentanamide] | 0.149 | 0.74 | 0.32 | 1.34
N#CCNC(=O)[C@H](CC1CCCCC1)NC(=O)c1ccccc1 [(2S)-N-(cyanomethyl)-3-cyclohexyl-2-(phenylformamido)propanamide] | – | 0.04 | 0.23 | 0.01
N#CCNC(=O)C1(NC(=O)c2ccc(N3CCOCC3)cc2)CCCCC1 [N-{1-[(cyanomethyl)carbamoyl]cyclohexyl}-4-(morpholin-4-yl)benzamide] | 0.58 | 8.5 | > 10 | 4.8
N#CCNC(=O)C1(NC(=O)c2ccc(-c3csc(N4CCOCC4)n3)cc2)CCCCC1 [N-{1-[(cyanomethyl)carbamoyl]cyclohexyl}-4-[2-(morpholin-4-yl)-1,3-thiazol-4-yl]benzamide] | 0.041 | 6.7 | > 10 | > 10
CCCN1CCN(c2ccc(C(=O)NC3(C(=O)NCC#N)CCCCC3)cc2)CC1 [N-[1-(cyanomethylcarbamoyl)cyclohexyl]-4-(4-propylpiperazin-1-yl)] | – | 0.48 | 0.048 | 2.9
CN1CCN(c2nc(-c3ccc(C(=O)NC4(C(=O)NCC(F)(F)F)CCCCC4)cc3)cs2)CC1 [4-[2-(4-methylpiperazin-1-yl)-1,3-thiazol-4-yl]-N-{1-[(2,2,2-trifluoroethyl)carbamoyl]cyclohexyl}benzamide] | – | > 10 | – | –
